Experimental data as given in ChEMBL document CHEMBL1201862, “PubChem BioAssay data set” (2004).
Calls of active or inactive are those of the source.

Experiments:
HEK293 [1] = assay: NOD1 signaling inhibitors, primary screen, cell-based, luminescence, uHTS (AID 1578); assay type: functional; settings: Homo sapiens
HEK293 [2] = assay: NOD2 signaling inhibitors in MDP-stimulated cells, cell-based, uHTS, luminescence (AID 2001); assay type: functional; settings: Homo sapiens
HEK293 [3] = assay: cells; assay type: functional, cell-based; settings: Homo sapiens
[4] = molecular target: Nucleotide-binding oligomerization domain-containing protein 2 (Homo sapiens, UniProt Q9HC29); assay: NOD2 signaling inhibitors, cell-based, luminescence, uHTS, HEK293 (AID 1566); assay type: functional
HEK293 [5] = assay: cells; assay type: functional, cell-based; settings: Homo sapiens; remark: listed apart in the source
HEK293 [6] = assay: cells; assay type: functional, cell-based; settings: Homo sapiens; remark: listed apart in the source
Troponin, cardiac muscle = Troponin, cardiac muscle (Homo sapiens, UniProt P19429+P45379+P63316); assay: Fluorescence-based biochemical high throughput dose response assay for activators of the calcium sensitivity of cardiac Regulated Thin Filaments (RTF). [Related pubchem assays (depositor defined):AID493008, AID493018, AID504382, AID504383]; assay type: protein-complex assay
[7] = molecular target: Peroxisome proliferator-activated receptor gamma/Nuclear receptor coactivator 2 (Homo sapiens, UniProt P37231); assay: (§1) TR-FRET dose response biochemical High Throughput Screening assay for agonists of the steroid receptor coactivator 2 (SRC-2) recruitment by the peroxisome proliferator-activated receptor gamma (PPAR gamma): non-selective agonists. [Related pubchem assays: 1297, 1032 ]; assay type: functional
[8] = molecular target: Peroxisome proliferator-activated receptor gamma/Nuclear receptor coactivator 3 (Homo sapiens, UniProt P37231); assay: as §1, with “3 (SRC-3)” for “2 (SRC-2)”, “1301 (Confirmation screen.), 1048 (Primary screen.)]” for “1297, 1032 ]”; assay type: functional
[9] = molecular target: Peroxisome proliferator-activated receptor gamma/Nuclear receptor coactivator 1 (Homo sapiens, UniProt P37231); assay: as §1, with “1 (SRC-1)” for “2 (SRC-2)”, “assays (depositor defined):AID1300, AID1808, AID504735, AID631]” for “assays: 1297, 1032 ]”; assay type: protein assay
[10] = molecular target: Glucose-6-phosphate 1-dehydrogenase (Homo sapiens, UniProt P11413); assay: human G6PD enzyme inhibitors, dose response, selectivity assay for P. falciparum G6PD inhibitor project, biochemical, fluorescence (AID 504792); assay type: functional
Cytochrome P450 3A4 = Cytochrome P450 3A4 (Homo sapiens, UniProt P08684);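 also: CYP3A4 tested as one member of a cytochrome P450 panel screen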
Cytochrome P450 2C9 [11] = molecular target: T1, Cytochrome P450 2C9 (Homo sapiens, UniProt P11712)
Cytochrome P450 1A2 = molecular target: T2, Cytochrome P450 1A2 (Homo sapiens, UniProt P05177);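 also: PubChem cytochrome P450 panel assay, CYP1A2 panel member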
T2 sequence (P05177 whole entry): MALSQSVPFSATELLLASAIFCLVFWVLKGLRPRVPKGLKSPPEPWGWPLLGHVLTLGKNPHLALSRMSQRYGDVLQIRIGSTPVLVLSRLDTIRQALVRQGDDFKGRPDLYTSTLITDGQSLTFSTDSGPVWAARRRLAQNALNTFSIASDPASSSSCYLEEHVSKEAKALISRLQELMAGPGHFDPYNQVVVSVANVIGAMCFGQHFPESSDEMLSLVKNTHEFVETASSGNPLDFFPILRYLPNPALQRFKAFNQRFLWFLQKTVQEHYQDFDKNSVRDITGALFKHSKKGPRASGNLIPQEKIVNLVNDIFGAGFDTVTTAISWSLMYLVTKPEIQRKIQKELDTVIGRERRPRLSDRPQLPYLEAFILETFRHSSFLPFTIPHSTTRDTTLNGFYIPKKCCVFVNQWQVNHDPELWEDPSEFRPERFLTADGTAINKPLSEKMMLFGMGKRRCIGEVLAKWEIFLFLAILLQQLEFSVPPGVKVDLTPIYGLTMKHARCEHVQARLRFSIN

Cytochrome P450 2C19 = Cytochrome P450 2C19 (Homo sapiens, UniProt P33261); assay: Cytochrome panel assay with activity outcomes. Panel member name: p450-cyp2c19 Compounds with AC50 equal or less than 10 uM are considered active; assay type: functional; settings: read-out: AC50
Cytochrome P450 2C9 [12] = molecular target: T1, Cytochrome P450 2C9; remark: listed apart in the source
Cytochrome P450 2D6 = Cytochrome P450 2D6 (Homo sapiens, UniProt P10635);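 also: CYP2D6 member of a cytochrome P450 panel assay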
[13] = molecular target: T3, Carboxy-terminal domain RNA polymerase II polypeptide A small phosphatase 1 (Homo sapiens, UniProt Q9GZU7); assay: inhibitors of CTDSP1, concentration-response testing, biochemical assay, absorbance-based, actives from ultra-high-throughput screening (AID 540297); assay type: functional
T3 sequence (Q9GZU7 whole entry): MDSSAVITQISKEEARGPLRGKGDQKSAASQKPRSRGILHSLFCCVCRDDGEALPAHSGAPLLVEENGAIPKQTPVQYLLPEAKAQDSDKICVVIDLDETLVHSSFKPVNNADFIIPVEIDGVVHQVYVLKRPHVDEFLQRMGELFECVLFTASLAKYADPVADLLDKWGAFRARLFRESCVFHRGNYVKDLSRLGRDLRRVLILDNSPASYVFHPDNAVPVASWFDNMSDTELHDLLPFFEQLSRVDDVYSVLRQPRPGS

[14] = insulin promoter down-regulators in MIN6 cells, imaging, high-content screening, mouse beta cells (AID 1628); assay type: functional
[15] = cytotoxicity in MIN6 insulinoma cells, dose response, cytotoxicity control, cell-based, mouse insulinoma (AID 2122); assay type: functional;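 also: confirmatory high-throughput counterscreen run to flag cytotoxic compounds; mouse MIN-6 beta cells carrying an insulin promoter eGFP reporter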

COc1ccc(CCNC(=O)c2ccc3c(c2)N(Cc2ccccc2)CCS3)cc1OC
EC50 (HEK293 [1]): 6.99 µM (active)
IC50 (HEK293 [2]): 7.53 µM (active)
IC50 (HEK293 [3]): 8.65 µM (active)
EC50 [4]: > 20 µM (inactive)
IC50 (HEK293 [5]): > 20 µM (inactive)
IC50 (HEK293 [6]): > 20 µM (inactive)

COC(=O)c1sc(N2C(=O)C(O)=C(C(=O)c3ccc(C)o3)C2c2ccc(F)cc2)nc1C (centres undefined)
EC50 (Troponin, cardiac muscle): > 71.4 µM (inactive)
EC50 [7]: 32.3 µM (not active)
EC50 [8]: > 79.4 µM (not active)
EC50 [9]: 41.9 µM (inactive)

O=C1C=CC(=O)N1c1ccc(-c2nc3ccccc3o2)cc1
IC50 [10]: > 80 µM (inactive)

CC1(C)CC(NC(=O)c2ccc3c(c2)OCO3)CC(C)(C)N1
AC50 (Cytochrome P450 3A4): inconclusive
AC50 (Cytochrome P450 2C9 [11]): 8.91 µM (inconclusive)

COc1ccc(NC(=O)c2ccc(-n3cccn3)nc2)c(OC)c1
AC50 (Cytochrome P450 1A2): 2.82 µM (inconclusive)
AC50 (Cytochrome P450 2C19): 14.1 µM (inconclusive)
AC50 (Cytochrome P450 2C9 [12]): inconclusive

Cc1ccccc1-c1cc(N(C)C)ncn1
AC50 (Cytochrome P450 2D6): 39.8 µM (inconclusive)
AC50 (Cytochrome P450 3A4): inconclusive

Cc1cc(C(=O)Nc2ccccc2C(=O)O)ccc1NC(=O)COc1ccccc1Cl
EC50 (HEK293 [1]): > 20 µM (inactive)
IC50 (HEK293 [2]): > 20 µM (inactive)
IC50 [13]: 6.31 µM (active)
IC50 (HEK293 [3]): > 20 µM (inactive)
EC50 [4]: 5.38 µM (active)
IC50 (HEK293 [5]): > 20 µM (inactive)
IC50 (HEK293 [6]): > 20 µM (inactive)

COc1ccc2c(c1[N+](=O)[O-])CCC/C2=N/OC(=O)c1cccc2ccccc12
AC50 (Cytochrome P450 2C9 [12]): inconclusive

CCNc1nc(NC(C)C)nc(NS(=O)(=O)c2ccc(Cl)cc2)n1
IC50 [10]: > 80 µM (inactive)

Cc1nc2ccccn2c1C(=O)N=Nc1c(O)n(CCC(C)C)c2ccccc12
IC50 [14]: 1.67 µM (active)
IC50 [15]: 2.72 µM (active)
